Key:
[1] = test system: Akt-pS473 in U87MG cells; details: Homo sapiens, U-87 MG; for IC50: read-out: U87 Akt-pS473 % Inhibition or IC50, nM (IC50), U87MG cells
[2] = molecular target: PI3Kα (p110α/p85α) (Homo sapiens (Human), UniProt P42336); test: PI3Kα enzymatic test by measuring the consumption of ATP; format: biochemical
Method in brief: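 p110α/p85α (1.7 μg/ml) with 50 μM PIP2 and 2 μM ATP in pH 7.5 Tris buffer with EGTA, MgCl2, Chaps, DTT; reaction 90 min. Remaining ATP measured by luciferin/luciferase luminescence; IC50 from threefold serial dilutions spanning at least 10 000-fold.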

[3] = test system: U87MG tumour cells; test: Test of in vitro proliferation of U87MG tumour cells; format: cell-based; details: Homo sapiens, U-87 MG, 72 h, U87MG cells, 72 hours; read-out: U87 Cell Proliferation IC50
Procedure: Model 4: Test of in vitro Proliferation of U87MG Tumour Cells.
The cell growth is determined with the reagent CellTiter 96 AQueous One Solution Cell Proliferation Assay from Promega (Cat. No. G3581).

[4] = molecular target: mTOR (human recombinant aa mTOR 1360-2549) (Homo sapiens (Human), UniProt P42345); test: mTOR enzymatic test by TR-FRET (phosphorylation of GFP-4EBP1); format: biochemical
Method in brief: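 TR-FRET detection of GFP-4EBP1 phosphorylation by a terbium-labelled anti-phospho-Thr46 antibody. Kinase reaction ran 30 min at room temperature, was quenched with EDTA (10 mM final) plus Tb-antibody (2 nM final) and left 60 min. Emission at 520 and 490 nm after 340 nm excitation, reported as the 520/490 ratio.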

PI3Kα (p110α/p85α), sequence (P42336 whole entry): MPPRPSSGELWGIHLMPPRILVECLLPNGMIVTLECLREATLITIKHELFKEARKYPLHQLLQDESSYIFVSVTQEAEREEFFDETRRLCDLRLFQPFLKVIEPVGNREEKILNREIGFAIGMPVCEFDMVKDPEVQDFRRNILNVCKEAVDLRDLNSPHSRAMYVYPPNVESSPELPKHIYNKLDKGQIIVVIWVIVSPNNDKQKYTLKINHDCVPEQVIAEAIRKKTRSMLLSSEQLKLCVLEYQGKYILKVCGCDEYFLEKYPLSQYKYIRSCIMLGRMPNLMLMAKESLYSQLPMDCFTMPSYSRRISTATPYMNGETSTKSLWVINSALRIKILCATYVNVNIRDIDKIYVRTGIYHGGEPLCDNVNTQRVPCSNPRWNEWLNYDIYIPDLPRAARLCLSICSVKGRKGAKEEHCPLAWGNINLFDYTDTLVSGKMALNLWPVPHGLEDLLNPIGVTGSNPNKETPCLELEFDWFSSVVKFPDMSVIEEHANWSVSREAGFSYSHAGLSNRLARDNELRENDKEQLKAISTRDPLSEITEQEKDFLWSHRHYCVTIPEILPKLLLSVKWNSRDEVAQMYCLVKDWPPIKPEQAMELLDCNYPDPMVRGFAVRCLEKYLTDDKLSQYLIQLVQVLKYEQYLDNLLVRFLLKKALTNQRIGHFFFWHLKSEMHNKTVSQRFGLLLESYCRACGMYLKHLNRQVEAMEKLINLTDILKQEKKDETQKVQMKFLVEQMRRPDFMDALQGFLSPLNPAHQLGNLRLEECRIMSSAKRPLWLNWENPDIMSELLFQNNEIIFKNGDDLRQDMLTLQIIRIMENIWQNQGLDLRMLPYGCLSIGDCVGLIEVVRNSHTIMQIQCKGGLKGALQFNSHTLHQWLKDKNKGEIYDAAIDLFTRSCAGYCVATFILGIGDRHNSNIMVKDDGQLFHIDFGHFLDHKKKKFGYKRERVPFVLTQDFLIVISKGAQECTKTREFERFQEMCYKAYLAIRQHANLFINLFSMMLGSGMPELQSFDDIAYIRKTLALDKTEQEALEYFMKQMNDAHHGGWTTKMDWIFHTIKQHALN
PI3Kα (p110α/p85α), sequence (P27986 whole entry partner): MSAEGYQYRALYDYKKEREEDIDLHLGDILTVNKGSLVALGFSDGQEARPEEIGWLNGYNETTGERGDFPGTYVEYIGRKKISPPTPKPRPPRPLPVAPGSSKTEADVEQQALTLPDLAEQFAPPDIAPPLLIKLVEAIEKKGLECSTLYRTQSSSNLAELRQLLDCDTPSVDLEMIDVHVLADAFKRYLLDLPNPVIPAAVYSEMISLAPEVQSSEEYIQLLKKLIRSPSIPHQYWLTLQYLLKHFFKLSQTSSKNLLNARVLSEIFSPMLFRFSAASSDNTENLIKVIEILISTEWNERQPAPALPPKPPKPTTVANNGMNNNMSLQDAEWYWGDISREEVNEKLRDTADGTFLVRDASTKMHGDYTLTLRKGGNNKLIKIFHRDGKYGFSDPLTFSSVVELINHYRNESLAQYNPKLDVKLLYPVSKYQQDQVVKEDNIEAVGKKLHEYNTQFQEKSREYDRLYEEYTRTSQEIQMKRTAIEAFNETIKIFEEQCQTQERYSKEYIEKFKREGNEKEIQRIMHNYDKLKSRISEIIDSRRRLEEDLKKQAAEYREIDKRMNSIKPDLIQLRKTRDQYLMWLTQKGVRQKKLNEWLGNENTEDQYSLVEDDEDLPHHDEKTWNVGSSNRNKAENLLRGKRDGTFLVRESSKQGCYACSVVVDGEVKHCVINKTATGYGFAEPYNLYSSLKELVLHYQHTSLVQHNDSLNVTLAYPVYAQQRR
mTOR (human recombinant aa mTOR 1360-2549), sequence (P42345 1360-2549): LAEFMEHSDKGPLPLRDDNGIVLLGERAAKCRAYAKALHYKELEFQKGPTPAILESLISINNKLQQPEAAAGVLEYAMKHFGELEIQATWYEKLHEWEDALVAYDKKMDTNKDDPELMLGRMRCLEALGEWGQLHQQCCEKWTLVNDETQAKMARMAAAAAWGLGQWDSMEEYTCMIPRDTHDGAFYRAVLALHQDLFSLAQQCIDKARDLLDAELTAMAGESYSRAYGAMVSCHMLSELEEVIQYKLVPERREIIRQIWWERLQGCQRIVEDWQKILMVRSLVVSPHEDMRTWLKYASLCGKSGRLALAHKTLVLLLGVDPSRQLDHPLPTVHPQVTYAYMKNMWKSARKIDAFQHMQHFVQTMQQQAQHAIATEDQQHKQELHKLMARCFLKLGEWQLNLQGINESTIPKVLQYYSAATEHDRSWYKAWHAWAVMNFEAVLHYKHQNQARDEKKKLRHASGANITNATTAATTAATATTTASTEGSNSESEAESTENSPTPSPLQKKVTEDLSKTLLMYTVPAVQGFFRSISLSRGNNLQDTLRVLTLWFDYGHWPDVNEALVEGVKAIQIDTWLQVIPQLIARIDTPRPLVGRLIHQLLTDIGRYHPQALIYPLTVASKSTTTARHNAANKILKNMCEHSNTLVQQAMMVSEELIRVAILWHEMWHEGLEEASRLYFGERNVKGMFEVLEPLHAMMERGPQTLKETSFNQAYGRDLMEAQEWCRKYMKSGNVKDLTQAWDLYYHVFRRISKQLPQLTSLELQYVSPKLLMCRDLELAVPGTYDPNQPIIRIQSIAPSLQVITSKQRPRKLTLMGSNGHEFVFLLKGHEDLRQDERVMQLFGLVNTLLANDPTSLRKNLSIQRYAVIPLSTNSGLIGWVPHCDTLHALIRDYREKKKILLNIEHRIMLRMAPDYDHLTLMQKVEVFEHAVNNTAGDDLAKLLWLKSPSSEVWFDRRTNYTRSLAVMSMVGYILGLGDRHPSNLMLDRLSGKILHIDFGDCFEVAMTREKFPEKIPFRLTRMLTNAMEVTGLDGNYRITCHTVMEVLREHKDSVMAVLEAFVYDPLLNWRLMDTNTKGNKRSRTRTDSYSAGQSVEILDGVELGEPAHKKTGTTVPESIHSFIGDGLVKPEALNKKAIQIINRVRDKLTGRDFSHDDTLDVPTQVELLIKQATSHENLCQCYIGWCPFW

Question: How did the IC50 [1] turn out when CCN1CC(C)(C)Oc2nc(N3C4CCC3COC4)nc(-c3ccc(NC(=O)Nc4cc(OC)ccn4)cc3)c2C1=O [Example 79, 1-{4-[6-Ethyl-8,8-dimethyl-2-(3-oxa-8-azabicyclo[3.2.1]oct-8-yl)-5-oxo-5,6,7,8-tetrahydro-9-oxa-1,3,6-triazabenzocyclohepten-4-yl]phenyl}-3-(4-methoxypyridin-2-yl)urea] was run?
Answer: 41 nM

Question: What about the “PI3Ka IC50” value [2] of the same compound?
Answer: >10000 nM

Question: And the IC50 [3]?
Answer: 383 nM

Question: What about the IC50 [4] of the same compound?
Answer: 53 nM

Question: What does the source list for CCN1CC(C)(C)Oc2nc(N3CCOC[C@@H]3C)nc(-c3ccc(NC(=O)Nc4ccncc4)c(F)c3)c2C1=O [Example 231, 1-{4-[6-Ethyl-8,8-dimethyl-2-((S)-3-methylmorpholin-4-yl)-5-oxo-5,6,7,8-tetrahydro-9-oxa-1,3,6-triazabenzocyclohepten-4-yl]-2-fluorophenyl}-3-pyridin-4-ylurea]?
Answer: IC50 [1]: 12 nM; PI3Ka IC50 [2]: 103 nM; IC50 [3]: 29 nM; IC50 [4]: 16 nM

Question: Which inhibition at 3 µM ([1]; read-out: U87 Akt-pS473 % Inhibition) does the source give for CCN1CC(C)(C)Oc2nc(N3CCOC[C@@H]3C)nc(-c3ccc(NC(=O)Nc4ccc(OC)nc4)c(C)c3)c2C1=O [Example 196, 1-{4-[6-Ethyl-8,8-dimethyl-2-((S)-3-methylmorpholin-4-yl)-5-oxo-5,6,7,8-tetrahydro-9-oxa-1,3,6-triazabenzocyclohepten-4-yl]-2-methylphenyl}-3-(6-methoxypyridin-3-yl)urea] here?
Answer: 60%

Question: And the “PI3Ka IC50” value [2]?
Answer: 7470 nM

Question: What about the IC50 [3] of the same compound?
Answer: 5050 nM

Question: What about the IC50 [4] of the same compound?
Answer: 276 nM
